The results in this text go back to patent US20230113037A1 (Bayer Aktiengesellschaft, priority 2019, published 2023).

Test [1] has as its target T1, AHR (Homo sapiens, UniProt P35869).
T1 construct: U87 MG glioblastoma cells (ATCC #HTB-14) endogenously expressing AHR; endogenous in cells; host or cells: U87 MG glioblastoma cells (ATCC #HTB-14)
T1 sequence (P35869 11-848): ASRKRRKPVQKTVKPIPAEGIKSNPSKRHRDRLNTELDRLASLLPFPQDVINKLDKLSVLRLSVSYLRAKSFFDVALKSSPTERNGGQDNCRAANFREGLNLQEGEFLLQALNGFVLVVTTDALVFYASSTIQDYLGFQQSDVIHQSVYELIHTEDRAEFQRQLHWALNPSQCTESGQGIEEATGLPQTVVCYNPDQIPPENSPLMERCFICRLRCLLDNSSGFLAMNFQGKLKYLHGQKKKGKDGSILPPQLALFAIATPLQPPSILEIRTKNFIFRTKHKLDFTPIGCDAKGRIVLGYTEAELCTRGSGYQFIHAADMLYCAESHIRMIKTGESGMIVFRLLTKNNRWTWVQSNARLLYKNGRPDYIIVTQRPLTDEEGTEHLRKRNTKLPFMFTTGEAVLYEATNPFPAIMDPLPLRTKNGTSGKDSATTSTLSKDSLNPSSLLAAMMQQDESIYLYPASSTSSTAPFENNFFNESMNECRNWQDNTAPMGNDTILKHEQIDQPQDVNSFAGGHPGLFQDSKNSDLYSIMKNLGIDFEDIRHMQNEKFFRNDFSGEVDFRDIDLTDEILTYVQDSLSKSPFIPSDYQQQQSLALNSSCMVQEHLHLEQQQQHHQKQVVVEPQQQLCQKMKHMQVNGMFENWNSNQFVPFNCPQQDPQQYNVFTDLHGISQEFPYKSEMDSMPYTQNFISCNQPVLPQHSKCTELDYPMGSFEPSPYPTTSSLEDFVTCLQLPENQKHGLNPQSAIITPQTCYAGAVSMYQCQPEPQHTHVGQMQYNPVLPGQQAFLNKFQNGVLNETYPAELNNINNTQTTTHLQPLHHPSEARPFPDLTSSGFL
In words: In vitro assay 1: antagonism in human cell line (AHR transactivation, firefly luciferase reporter, kynurenic acid prestimulated). Type of test: cell-based. Conditions: AHR Antagonism Human IC50 [M]. Summed up:
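Antagonism measured as loss of kynurenic acid-driven firefly luciferase from DRE reporter in stably transfected U87 MG cells; constitutive Renilla signal monitors cytotoxicity. Positive/negative control normalization, staurosporine 5 μM with 150 μM kynurenic acid as inhibition control; replicates given as mean or median.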

Test [2] has as its target T2, AHR (Mus musculus, UniProt P30561).
T2 sequence (P30561 1-848 P471L/N533S/M589L): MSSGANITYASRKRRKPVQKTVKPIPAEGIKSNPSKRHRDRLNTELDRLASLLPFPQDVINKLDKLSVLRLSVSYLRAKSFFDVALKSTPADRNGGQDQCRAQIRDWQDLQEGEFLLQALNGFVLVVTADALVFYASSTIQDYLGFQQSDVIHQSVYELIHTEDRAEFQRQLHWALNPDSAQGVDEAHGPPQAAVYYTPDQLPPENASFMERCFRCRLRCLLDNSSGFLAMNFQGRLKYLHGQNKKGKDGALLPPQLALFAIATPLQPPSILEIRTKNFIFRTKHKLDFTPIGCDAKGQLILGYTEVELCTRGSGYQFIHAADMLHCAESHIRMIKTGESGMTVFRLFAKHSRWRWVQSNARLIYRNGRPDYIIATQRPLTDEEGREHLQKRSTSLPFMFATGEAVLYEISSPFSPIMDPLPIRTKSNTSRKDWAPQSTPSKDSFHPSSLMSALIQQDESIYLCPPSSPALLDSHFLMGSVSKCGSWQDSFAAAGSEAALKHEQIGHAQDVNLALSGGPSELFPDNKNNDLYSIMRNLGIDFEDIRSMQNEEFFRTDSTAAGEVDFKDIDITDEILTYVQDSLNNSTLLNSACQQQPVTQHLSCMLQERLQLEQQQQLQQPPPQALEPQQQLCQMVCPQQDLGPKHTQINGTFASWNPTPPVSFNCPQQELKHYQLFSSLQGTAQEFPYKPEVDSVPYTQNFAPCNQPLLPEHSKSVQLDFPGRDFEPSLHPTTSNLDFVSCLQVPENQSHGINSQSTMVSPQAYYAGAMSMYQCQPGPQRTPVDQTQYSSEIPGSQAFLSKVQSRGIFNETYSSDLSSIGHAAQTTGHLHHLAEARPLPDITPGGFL
Put plainly: In vitro assay 3: antagonism in mouse cell line (AHR transactivation, firefly luciferase reporter, kynurenic acid prestimulated). Type of test: cell-based. Conditions: 200 μM kynurenic acid, 20 hours, read-out: AHR Antagonism Mouse IC50. Summed up: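 Antagonism read as reduced firefly luciferase signal (SteadyGlo) from a stably transfected AHR/DRE reporter in a mouse line prestimulated with kynurenic acid. Data normalized to controls, the full-inhibition control being cells without kynurenic acid; multiple determinations given as average or median values.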

The mark [3] stands for this setting: Hepa 1c1c7 cells, firefly luciferase reporter.

Values joined by “and” are separate entries in the source; they are usually repeats but may differ in a detail not shown here. Identical values can stand only once. Like-named read-outs stand apart in the source and are kept apart here. Bounds are passed on as bounds.

For the compound `COc1cscc1-c1nc2c3ccccc3nc(N[C@H]3CCCCNC3=O)n2n1` [Example 336, (3S)-3-{[2-(4-methoxythiophen-3-yl)[1,2,4]triazolo[1,5-c]quinazolin-5-yl]amino}azepan-2-one], the results for the IC50 against AHR [1] and at AHR [2] (mouse Hepa 1c1c7 cells) were 8.51e-06 M and 434 nM, respectively.
The matching figures for `COc1cscc1-c1nc2c3ccccc3nc(N[C@@H]3CCN(C)C3=O)n2n1` [Example 337, (3R)-3-{[2-(4-methoxythiophen-3-yl)[1,2,4]triazolo[1,5-c]quinazolin-5-yl]amino}-1-methylpyrrolidin-2-one]: 1.71e-06 M and greater than 20000 nM.
Consider `C[C@@H](Nc1nc2ccccc2c2nc(-c3cccc(OC(F)(F)F)c3)nn12)C(=O)NCCN(C)C` [Example 325, N-[2-(dimethylamino)ethyl]-N^2-{2-[3-(trifluoromethoxy)phenyl][1,2,4]triazolo[1,5-c]quinazolin-5-yl}-D-alaninamide], for which the IC50 against AHR [1] is 1.49e-05 M and 1.56e-05 M and > 2e-05 M; on AHR [2] (mouse Hepa 1c1c7 cells), 677 nM.
For the compound `CCCNC(=O)[C@@H](C)Nc1nc2c(Br)cccc2c2nc(-c3cnn(C)c3)nn12` [Example 796, N^2-[7-bromo-2-(1-methyl-1H-pyrazol-4-yl)[1,2,4]triazolo[1,5-c]quinazolin-5-yl]-N-propyl-D-alaninamide], the IC50 on AHR [1] (firefly luciferase reporter) came out at 1.37e-08 M; at AHR [2] (setting [3]) it was 20.2 nM.
With `COc1cccc(-c2nc3c4cccc(C)c4nc(N[C@H]4CCCCNC4=O)n3n2)c1` [Example 141], the figures for the IC50 against AHR [1] and on AHR [2] (mouse Hepa 1c1c7 cells) were 2.84e-08 M and 83.2 nM, respectively.
The matching figures for `O=C1NCCC[C@H]1Nc1nc2c(Br)cccc2c2nc(-c3ccccc3OC(F)(F)F)nn12` [Example 220, (3R)-3-({7-bromo-2-[2-(trifluoromethoxy)phenyl][1,2,4]triazolo[1,5-c]quinazolin-5-yl}amino)piperidin-2-one]: 2e-08 M and 6.76 nM.
For the compound `COc1ccc(-c2nc3c4cccc(Br)c4nc(N[C@@H](C(=O)O)C(C)C)n3n2)cc1` [Example 872, N-[7-bromo-2-(4-methoxyphenyl)[1,2,4]triazolo[1,5-c]quinazolin-5-yl]-D-valine], the values for the IC50 against AHR [1] (firefly luciferase reporter) and on AHR [2] (setting [3]) were 6.57e-09 M and 15.8 nM, respectively.
For `O=C1NCCNC[C@H]1Nc1nc2c(Br)cccc2c2nc(-c3cnn(CC4CCC4)c3)nn12` [Example 982, (6R)-6-({7-bromo-2-[1-(cyclobutylmethyl)-1H-pyrazol-4-yl][1,2,4]triazolo[1,5-c]quinazolin-5-yl}amino)-1,4-diazepan-5-one], the IC50 came out at 9.42e-09 M on AHR [1] (firefly luciferase reporter) and 20.6 nM at AHR [2] (setting [3]).
The matching figures for `C[C@@H]1CN(C(=O)[C@@H](C)Nc2nc3c(Br)cccc3c3nc(-c4cnn(C)c4)nn23)CCN1C` [Example 910, (2R)-2-{[7-bromo-2-(1-methyl-1H-pyrazol-4-yl)[1,2,4]triazolo[1,5-c]quinazolin-5-yl]amino}-1-[(3R)-3,4-dimethylpiperazin-1-yl]propan-1-one]: 2.4e-08 M and 24.7 nM.
As to `CC(C)n1cc(-c2nc3c4cccc(C(F)(F)F)c4nc(N[C@@H]4CS(=O)(=O)CCNC4=O)n3n2)cn1` [Example 852, (6S)-6-({2-[1-(propan-2-yl)-1H-pyrazol-4-yl]-7-(trifluoromethyl)[1,2,4]triazolo[1,5-c]quinazolin-5-yl}amino)-1λ^6,4-thiazepane-1,1,5-trione], the figures for the IC50 on AHR [1] (firefly luciferase reporter) and at AHR [2] (setting [3]) were 8.28e-09 M and 66.2 nM, respectively.
On to `C[C@@H](Nc1nc2c(Br)cccc2c2nc(-c3cnn(C)c3)nn12)C(=O)NCCN(C)C(=O)OC(C)(C)C` [Example 888, tert-butyl [2-({N-[7-bromo-2-(1-methyl-1H-pyrazol-4-yl)[1,2,4]triazolo[1,5-c]quinazolin-5-yl]-D-alanyl}amino)ethyl]methylcarbamate], for which the IC50 at AHR [1] (firefly luciferase reporter) worked out at 1.73e-08 M; at AHR [2] (setting [3]), 24.8 nM.
Regarding `COc1ccc(-c2nc3c4cccc(Br)c4nc(N[C@@H](C(N)=O)C(C)C)n3n2)cc1` [Example 556, N^2-[7-bromo-2-(4-methoxyphenyl)[1,2,4]triazolo[1,5-c]quinazolin-5-yl]-D-valinamide], the IC50 against AHR [1] was 4.03e-10 M; at AHR [2] (mouse Hepa 1c1c7 cells), 0.415 nM.
